We go through 2 compounds from PMC7694948, “Mitochondrial Targeting in an Anti-Austerity Approach Involving Bioactive Metabolites Isolated from the Marine-Derived Fungus Aspergillus sp” (Marine Drugs, 2020).

Like-named read-outs stand apart in the source and are kept apart here.

For one data set, the system named is SUPB15 cell lines. Also noted: method as in PMID 28810515. As to conditions: SUPB15, general culture conditions; cited from earlier work.
The next data set has as its system CCRF-ADR5000 cells. The arrangement: method as in PMID 29707146. Particulars: CCRF-ADR5000, general culture conditions; cited from earlier work.
For a further data set, the system named is cervical carcinoma cells. Also noted: method as in PMID 24071573. Particulars: general culture conditions; cited from earlier work.
Another data set deals with NALM6 cell lines. The arrangement: method as in PMID 28810515. As to conditions: NALM6, general culture conditions; cited from earlier work.
The subject of a further data set is lung cancer cells. The arrangement: method as in PMID 26479318, PMID 21725807. Particulars: general culture conditions; cited from earlier work.
The subject of a further data set is colon cancer cells. The arrangement: method as in PMID 26707141, PMID 20837130. As to conditions: general culture conditions; cited from earlier work.
The test system of a further data set is K562 cell lines. The arrangement: method as in PMID 26479318. Particulars: K562, general culture conditions; cited from earlier work.
In data set [1] the test system is oxygen consumption by PANC-1 cells. The data set can be described thus: Oxygen consumption (Oxygen Consumption Rate Assay Kit). As to conditions: PANC-1 in general glucose medium. It counts as cell-based, human. The method, then:
Figure 3 Effect of compounds 1 and 2 on the oxygen consumption by PANC-1 cells. The precultured PANC-1 cells in the 96-well plates were incubated in general culture medium for 12 h at 37 °C. The medium was then replaced with fresh medium; subsequently, the test compound was added, followed by addition of the phosphorescent probe to measure the oxygen consumption. The signals were measured with a Tecan Infinite M1000 microplate reader by using the time-resolved mode. Differences were considered significant at * p < 0.05. CCCP: carbonyl cyanide m-chlorophenylhydrazone.
The oxygen consumption of PANC-1 cells was analyzed using the Oxygen Consumption Rate Assay Kit (Cayman Chemical) following the manufacturer’s instructions. Briefly, precultured PANC-1 cells (8.0 × 10^4 cells) in black/clear bottom 96-well plates (Corning Incorporated) were incubated for 12 h at 37 °C in general glucose medium. […] The signals were measured using an Infinite M1000 microplate reader (Tecan Group Ltd., Zurich, Switzrland) in the time-resolved mode at Ex 380 nm and Em 650 nm for 180 min, with a 1-min time interval. Linear regression was applied after subtracting the blank, and the oxygen consumption rate was determined by the slope of each signal profile.

Data set [2] concerns hepatocellular carcinoma cells. The arrangement: method as in PMID 28042511, PMID 29710489. Particulars: general culture conditions; cited from earlier work.
Data set [3] deals with nasopharyngeal carcinoma cells. Also noted: method as in PMID 27694907. Particulars: general culture conditions; cited from earlier work.
Data set [4] has as its system glucose-6-phosphate dehydrogenase. The arrangement: method as in PMID 26479318. Particulars: against breast cancer cells; cited from earlier work.
The test system of the next data set is U937 cell lines. The arrangement: method as in PMID 20796195. Particulars: U937, general culture conditions; cited from earlier work.
The next data set relates to breast cancer cells. Also noted: method as in PMID 25574462. Particulars: general culture conditions; cited from earlier work.
In data set [5] the target is Mitochondrial complex V (F1F0 ATP synthase) (Bos taurus, UniProt P00829+P00847+P19483+P32876). Description: MitoCheck Complex Activity Assay, complex V. The format is biochemical, bovine. On the procedure:
(§1) The inhibitory activity of compound 1 on the mitochondrial electron transport chain (complexes I–V) was analyzed using MitoCheck Complex Activity Assay kits (Cayman Chemical) following the manufacturer’s instructions. The kits measured the enzymatic activity of each complex derived from bovine heart mitochondria in the following systems: Mitochondrial complex I (NADH oxidase/coenzyme Q reductase) activity was determined by measuring the decrease in NADH oxidation, which is reflected by a decrease in absorbance at 340 nm. Mitochondrial complex II (succinate dehydrogenase/coenzyme Q reductase) activity was assessed on the basis of the reduction rate of 2, 6-dichlorophenolindophenol (protonated by reduced coenzyme Q), which is reflected by a decrease in absorbance at 600 nm. Mitochondrial complex III (coenzyme Q cytochrome c oxidoreductase) activity was determined on the basis of the cytochrome c reduction rate, which is reflected by an increase in absorbance at 550 nm. Mitochondrial complex IV (cytochrome c oxidase) activity was determined by measuring the cytochrome c oxidation rate, which is reflected by a decrease in absorbance at 550 nm. Mitochondrial complex V (F1F0 ATP synthase) activity was determined by the NADH oxidation rate, which can be monitored at 340 nm.

The next data set has as its system K-562 cells. Also noted: method as in PMID 18758101. Particulars: cited from earlier work.
Data set [6] concerns the target Mitochondrial complex I (NADH oxidase/coenzyme Q reductase) (Bos taurus, UniProt P03887+P17694+P25708+P42026). The data set can be described thus: MitoCheck Complex Activity Assay, complex I. The format is biochemical, bovine. On the procedure:
as §1

For the next data set, the system named is NCI-H460 cells. The arrangement: method as in PMID 18758101. Particulars: 100 µg/mL (352 µM); cited from earlier work.
The subject of another data set is P-388 cells. The arrangement: method as in PMID 18758101. Particulars: cited from earlier work.
The next data set concerns MCF-7 cells. Also noted: method as in PMID 18758101. Particulars: 100 µg/mL (352 µM); cited from earlier work.
The next data set relates to SF-268 cells. The arrangement: method as in PMID 18758101. Particulars: 100 µg/mL (352 µM); cited from earlier work.
The next data set has as its system HL-60 cells. Also noted: method as in PMID 18758101. Particulars: cited from earlier work.
In a further data set the test system is A-549 cells. Also noted: method as in PMID 18758101. Particulars: cited from earlier work.
[7] abbreviates: conversion of 10 µg/mL, read-out: IC50.

Usually IC50 stands for the midpoint of a concentration-inhibition curve. As usually defined, the inhibition is the drop in the measured response relative to a control, in per cent. High values mean strong suppression, low ones little suppression.

`COc1cc(O)c2c(c1)C(=O)c1cc(C)cc(O)c1C2=O` [Compound 1, physcion]: the IC50 is 5 µM in the data set with SUPB15 cell lines; 74.8 µM in the data set with CCRF-ADR5000 cells; 100 µM with cervical carcinoma cells; 5 µM with NALM6 cell lines; 15.1 to 35.1 µM with lung cancer cells; 10 to 50 µM with colon cancer cells. The IC50 in the data set on K562 cell lines is 12.5 µM; in data set [2] it was 10 µM; in [3], 20 µM; in the data set on U937 cell lines, 27.9 µM; with breast cancer cells, 45.4 µM. In [1], the “effect on oxygen consumption” value is reported as “inhibit oxygen consumption to a similar extent as antimycin A”. Besides, the “inhibition of glucose-6-phosphate dehydrogenase” value in data set [4] is recorded as “specific inhibitor”.

For `C/C=C/C=C/c1cc2c(C=O)c(O)c(CC=C(C)C)cc2o1` [Compound 2, 2-(2′,3-epoxy-1′,3′,5′-heptatrienyl)-6-hydroxy-5-(3-methyl-2-butenyl) benzaldehyde], in data set [5] (100 µM), the “inhibition of complex V” value is on record as “not inhibited”. The IC50 is over 100 µM in [5] (bovine heart mitochondria); “higher than 10 µg/mL” in the data set on K-562 cells; over 35.2 µM with K-562 cells (setting [7]); over 100 µM in data set [6] (bovine heart mitochondria); “higher than 10 µg/mL” in the data set with P-388 cells; over 35.2 µM with P-388 cells (setting [7]). Further, the IC50 result with HL-60 cells is “higher than 10 µg/mL”; with HL-60 cells (setting [7]), over 35.2 µM; with A-549 cells, “higher than 10 µg/mL”; in the data set with A-549 cells (setting [7]) it was over 35.2 µM. In addition, in [6] (100 µM), the inhibition at 100 µM turned out to be 18%. The cytotoxic effect result in the data set on NCI-H460 cells, in the data set on MCF-7 cells and with SF-268 cells was “more than 90%” throughout. Further, the “effect on oxygen consumption” value in data set [1] is given as “inhibit oxygen consumption to a similar extent as antimycin A”.
